Measured values taken from patent US20130296393A1, “METHOD FOR CONTROLLING CLUBROOT” (ISHIHARA SANGYO KAISHA, LTD., priority 2011, published 2013).

System: Plasmodiophora brassicae
Test: Cabbage clubroot control test, pot test (Example 1 / Comparative Example 1)
Format: in vivo
Parameters: key to Disease control value: {1−(treatment severity/control severity)}×100; key to Disease severity: Σ(plants×index 0-4)/(plants×4)×100; 0 = no clubroot
Conditions: for Disease control value / Disease severity: 60 days after settled planting
Protocol: A chemical solution for spraying at 50 ppm was prepared by diluting 9.4% w/w cyazofamid (Ranman [trade name] flowable, manufactured by Ishihara Sangyo Kaisha Ltd.) with water.
A spore suspension of Plasmodiophora brassicae (fungus density: 1×10^5 fungi/g dry soil) was inoculated into a sterilization soil adjusted to pH of 6.2 with Sandoseto and after introducing the resulting test soil into a 1/5000 a pot, a cabbage (variety: Okina) seedling grown in a cell seedling tray (128 cells/seedling box) was settled-planted by establishing five plantings for each test section having a size of 0.02 m^2 per one plant. Just after the settled planting, 3 days, 7 days, 10 days and 14 days after the settled planting, the chemical solution for spraying prepared in (1) was applied by soil drench at a ratio of 250 ml/plant. Sixty days after the settled planting, the number of each index of clubroot adhesion to the root was investigated. For comparison, the same test was carried out on a control section where a soil drench treatment with the chemical solution for spraying was not applied.
The test was carried out by the same method as in Example 1(2) except that in place of the soil drench treatment with the chemical solution for spraying, 30 kg/10 a of 0.3% flusulfamide (dust formulation of Nebijin [trade name], manufactured by Mitsui Chemicals Agro, Inc.) was applied to the test soil just before settled planting and incorporated into the soil by means of a small mixer (interfusion depth: 15 cm).
In Example 1 and Comparative Example 1, the adhesion of clubroot was investigated by pulling out the root of cabbage. The adhesion of clubroot was investigated by calculating the disease severity using the following formula. In addition, the weight of cabbage in the aerial part was measured. Furthermore, the test result was shown by the average value of five plantings.
Disease severity={Σ(number of each index of diseased plants×disease index)/(number of plants surveyed×4)}×100
Disease control value={1−(treatment disease severity/control disease severity)}×100
0: No adhesion of clubroot, 1: clubroot adhesion to lateral root, 2: clubroot adhesion to the entire lateral root or clubroot adhesion to a part of tap root, 3: adhesion of large clubroot to tap root, and 4: clubroot adhesion to the entire tap root.

[1] = 50 ppm soil drench 250 ml/plant 3 days after settled planting
[2] = 50 ppm soil drench 250 ml/plant 7 days after settled planting
[3] = 50 ppm soil drench 250 ml/plant 10 days after settled planting
[4] = 50 ppm soil drench 250 ml/plant 14 days after settled planting
[5] = 50 ppm soil drench 250 ml/plant just after settled planting

With `Cc1ccc(-c2c(Cl)nc(C#N)n2S(=O)(=O)N(C)C)cc1` [cyazofamid, 4-chloro-2-cyano-1-dimethylsulfamoyl-5-(4-methylphenyl)imidazole] the “Weight in the aerial part” value [1] was 156 g, the Disease control value [1] was 75 and the Disease severity [1] was 20. The “Weight in the aerial part” value [2] was 168 g, the Disease control value [2] was 69 and the Disease severity [2] was 25. For the same molecule, the “Weight in the aerial part” value [3] was 164 g, the Disease control value [3] was 50 and the Disease severity [3] was 40. The “Weight in the aerial part” value [4] was 163 g, the Disease control value [4] was 31 and the Disease severity [4] was 55. For the same molecule, the “Weight in the aerial part” value [5] was 164 g, the Disease control value [5] was 81 and the Disease severity [5] was 15.
